These results are taken from patent US20090142816A1, “GLIOCLADIUM ISOLATE C-13 AND METHODS OF ITS USE FOR PRODUCING VOLATILE COMPOUNDS AND HYDROCARBONS” (priority 2007, published 2009).

“Also recorded” adds a separate entry of the source.

Common to all, as to assay: PDA plate bioassay of artificial VOC mixture / [8]annulene, two day exposure
Type in all cases: cell-based

One test has as its system Aspergillus ochraceus. How it is done:
(§1) An artificial mixture of compounds, as well as [8]annulene, that were positively identified in the atmosphere of the Gliocladium sp., were subjected to PDA plate bioassay tests for a two day exposure period. They were available from Sigma-Aldrich (St. Louis, Mo.) or were prepared via organic synthetic techniques (Strobel et al., Microbiology 147: 2943-2950, 2001). Varying amounts (non-equilibrium conditions) of the mixtures of the VOCs (0.8-30 μl) were placed in a small sterile plastic microcup (4×6 mm) that was firmly fixed in the middle of the test plate, and then test organisms were inoculated around the periphery of the agar surface. The amount of each VOC used was calculated from relative areas (RA's) in Table 2. […] Measurements of fungal growth were made and compared to growth on a control PDA plate having no test compounds. The IC50 and IC100 values were calculated from data plots of inhibition of fungal growth as a function of VOC concentrations (Strobel et al., Microbiology 147: 2943-2950, 2001). The IC values are presented as the amount of VOCs (volume per ml of air space in the Petri plate above the fungal culture). Studies were done in triplicate and the data averaged and standard deviations determined (Strobel et al., Microbiology 147: 2943-2950, 2001). Each test organism, after the two day exposure was tested for its viability by placing it on a fresh plate of PDA.
(§2) The test fungi were exposed to amounts of the VOC's varying from 0.8 μl to 30 μl (non-equilibrium conditions in a 50 ml air space volume above the fungal culture on the Petri plate) and exposed to them for two days after which growth rates were measured and the IC50's and IC100's calculated.
(§3) The artificial mixture was prepared based on the ratios of the compounds identified by GC/MS. The IC50's were calculated on the basis of the μl VOCs/ml of the free gas space in the Petri plate above the fungal culture. The IC100's were extrapolated from the curves obtained by plotting fungal inhibition vs. VOC concentration. The IC100's represent the approximate concentration required to give 100% inhibition of fungal growth. Viability was evaluated by transferring the fungal to a regular PDA plate after exposure to the VOC mixtures.
(§4) The IC50's were calculated on the basis of the μl [8]annulene/ml of the free gas space in the Petri plate above the fungal culture. The IC50's and IC100's were calculated in the same manner as described in Example 1. The IC100's represent the approximate concentration required to give 100% inhibition of fungal growth. Viability was tested by transferring the fungal to a regular PDA plate after exposure to [8]annulene.

The subject of a further test is Fusarium oxysporum. How it is done: as §1, §2, §3, §4
A further test deals with Geotrichum candidum. How it is done: as §1, §2, §3, §4
Another test relates to Gliocladium sp. How it is done: as §1, §2, §3, §4
The test system of a further test is Pythium ultimum. How it is done:
as §1, §2, §3, §4

The test system of the next test is Rhizoctonia solani. How it is done: as §1, §2, §3, §4
The test system of the next test is Sclerotinia sclerotiorum. How it is done: as §1, §2, §3, §4
In another test the test system is Verticillium dahliae. How it is done: as §1, §2, §3, §4
The mark [1] stands for this setting: after exposure at the IC100 level, placed on fresh agar plate.
Setting [2] is: two day exposure, approximate concentration for 100% inhibition, extrapolated from inhibition curves.
[3] abbreviates: two day exposure, μl per ml of free gas space in the Petri plate.

`C1=CC=CC=CC=C1` [[8]annulene, 1,3,5,7-cyclooctatetraene]: the Viability result is reported as “alive” in the test on Aspergillus ochraceus (setting [1]); “alive” with Fusarium oxysporum (setting [1]); “alive” in the test with Geotrichum candidum (setting [1]); “alive” in the test with Gliocladium sp. (setting [1]); “did not die; also recorded: alive” in the test with Pythium ultimum (setting [1]); “alive” with Rhizoctonia solani (setting [1]). Also, the results for the Viability result in the test with Sclerotinia sclerotiorum (setting [1]) and in the test with Verticillium dahliae (setting [1]) were “did not die; also recorded: alive” and “alive”, respectively. In addition, the IC100 is listed as 0.50 μl/ml in the test on Aspergillus ochraceus (setting [2]); 0.70 μl/ml with Fusarium oxysporum (setting [2]); 0.44 μl/ml in the test with Geotrichum candidum (setting [2]); 0.60 μl/ml with Gliocladium sp. (setting [2]); 0.30 μl/ml with Pythium ultimum (setting [2]); 0.40 μl/ml with Rhizoctonia solani (setting [2]). The IC100 in the test on Sclerotinia sclerotiorum (setting [2]) and with Verticillium dahliae (setting [2]) was 0.30 μl/ml throughout. The IC50 in the test on Aspergillus ochraceus (setting [3]) came out at 0.08 ± 0.01 μl/ml; with Fusarium oxysporum (setting [3]), 0.28 ± 0.03 μl/ml; with Geotrichum candidum (setting [3]) it was 0.10 ± 0.02 μl/ml; in the test on Gliocladium sp. (setting [3]), 0.30 ± 0.01 μl/ml; in the test on Pythium ultimum (setting [3]), 0.10 ± 0.04 μl/ml; in the test with Rhizoctonia solani (setting [3]), 0.14 ± 0.08 μl/ml. Further, the IC50 came to 0.05 ± 0.01 μl/ml with Sclerotinia sclerotiorum (setting [3]) and 0.18 ± 0.00 μl/ml with Verticillium dahliae (setting [3]).
